Assay results as given in patent US20060172004A1, “Oral compositions for the stimulation of gastric acid secretion comprising pentagastrin” (priority 2003, published 2006).
Read-outs that look alike come from different tables or passages of the source.

Assays:
gastric acid secretion = assay: Gastric pH and acid output after tetragastrin s.c. or per os in pylorus-ligated rats; type: in vivo, Wister rats; conditions: for acid secretion: 30 min, titration with NaOH to pH 7; for gastric pH: gastric juice collected 30 min after treatment
Experimental: The effect of tetragastrin (Trp-Met-Asp-PheNH2) administered orally in stimulating gastric acid secretion was examined. […] Tetragastrin was administered either s.c. (25 μg/kg) or per os (206 μg/kg) and gastric juice was collected 30 min following treatment. Acid concentration was measured by titration the samples with NaOH to pH=7. Results are expressed as means±SEM of 3-4 animals.

gastrin receptor (CCKB) = target: T1, gastrin receptor (CCKB) (Rattus norvegicus, UniProt P30553); assay: Effect of CCKB antagonist on PG-mediated gastric acid secretion in pylorus-ligated rats; type: in vivo
T1 construct: from tissue; host or cells: stomach of live anesthetized pylorus-ligated rats (in vivo)
T1 sequence (P30553 1-452): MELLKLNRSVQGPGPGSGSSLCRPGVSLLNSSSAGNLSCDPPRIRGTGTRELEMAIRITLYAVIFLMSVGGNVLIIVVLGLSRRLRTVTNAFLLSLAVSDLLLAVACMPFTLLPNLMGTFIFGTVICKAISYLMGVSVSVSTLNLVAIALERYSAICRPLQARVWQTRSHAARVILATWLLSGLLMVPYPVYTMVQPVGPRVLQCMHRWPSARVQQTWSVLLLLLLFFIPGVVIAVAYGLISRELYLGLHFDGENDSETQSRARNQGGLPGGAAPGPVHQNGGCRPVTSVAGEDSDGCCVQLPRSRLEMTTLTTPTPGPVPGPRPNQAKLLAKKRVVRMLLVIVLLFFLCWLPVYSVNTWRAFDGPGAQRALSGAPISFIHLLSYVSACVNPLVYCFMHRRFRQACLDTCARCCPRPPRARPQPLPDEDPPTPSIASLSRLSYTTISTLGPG
Experimental: As PG is a gastrin hormone homologue, its local effect is thought to be mediated via gastrin pathway, i.e. an activation of gastrin receptor (CCKB). To test this hypothesis the effect of the specific CCKB antagonist (Itriglumide) on PG-mediated acid secretion in rats was examined.
In this study, rats were anesthetized with Ketamine and Domitor mixture and provided with 20 mg/kg of Itriglumide that was administered intraduodenally (i.d.). Following 15 min, gastric pylorus was ligated and 300 μg/kg PG was administered into the stomach (i.g.). After 30 min, gastric juice was obtained, centrifuged and the volume and pH of the supernatants were measured. The acid concentration (titratable acidity) was analyzed by titration the gastric juice samples with NaOH and total acid output expressed in […] HCl was calculated by multiplying the sample volume by the acid concentration.

[1] = for radioactivity in systemic circulation: oral dose 50×10^6 CPM; for Radioactivity in systemic circulation % of Total Radioactivity/Dose: 50 μg/kg
Experimental: The bioavailability of PG in rats following oral administration of ^3H-labeled PG was studied. Male Wister Hanover rats were anaesthetized and catheters were positioned in the jugular vein for blood sampling. Rats were treated orally with ^3H-PG at a dose of 50 μg/kg (50×10^6 CPM per dose) and blood samples were drawn at 5, 15 and 30 minutes. The radioactivity in blood samples at each time point was determined by a β-counter.

Structure (SMILES): CSCC[C@H](NC(=O)[C@@H](N)Cc1c[nH]c2ccccc12)C(=O)N[C@@H](CC(=O)O)C(=O)N[C@@H](Cc1ccccc1)C(N)=O [tetragastrin, Trp-Met-Asp-PheNH2]
- local stimulation of gastric acid secretion compared to PG (gastric acid secretion; equimolar dose, oral): less prominent as compared to PG
- acid secretion (gastric acid secretion; per os 206 μg/kg): elevated acid secretion
- gastric pH (gastric acid secretion; per os 206 μg/kg): reduced gastric pH
- acid secretion (gastric acid secretion; s.c. 25 μg/kg): elevated acid secretion
- gastric pH (gastric acid secretion; s.c. 25 μg/kg): reduced gastric pH

Structure (SMILES): Cc1cc(C)c(NC(=O)C[C@H](CC(=O)O)c2cccc3ccccc23)c(C(=O)N2CCC3(CCCC3)CC2)c1 [CCKB ant., Itriglumide]
- Acid Output MEAN (gastrin receptor (CCKB); CCKB ant. i.d. 20 mg/kg alone, pylorus-ligated rats): 15.24 pEq HCl
- effect of antagonist on PG-mediated gastric acid secretion (gastrin receptor (CCKB); intraduodenal 20 mg/kg, PG 300 μg/kg i.g., rats): inhibits the local effect of PG on gastric acid secretion

Structure (SMILES): CSCC[C@H](NC(=O)[C@H](Cc1c[nH]c2ccccc12)NC(=O)CCNC(=O)OC(C)(C)C)C(=O)N[C@@H](CC(=O)O)C(=O)N[C@@H](Cc1ccccc1)C(N)=O [^3H-PG]
- radioactivity in systemic circulation ([1]; 5 min): 748×10^3 CPM
- Radioactivity in systemic circulation % of Total Radioactivity/Dose ([1]; 5 min following oral administration): 1.43%
- radioactivity in systemic circulation ([1]; 15 min): 982×10^3 CPM
- Radioactivity in systemic circulation % of Total Radioactivity/Dose ([1]; 15 min following oral administration): 1.67%
- radioactivity in systemic circulation ([1]; 30 min): 832×10^3 CPM
- Radioactivity in systemic circulation % of Total Radioactivity/Dose ([1]; 30 min following oral administration): 1.42%
- share of total orally administered radioactivity that entered the systemic circulation ([1]; oral 50 μg/kg (50×10^6 CPM), over 5-30 min): approximately 1.5%
